The source of these data is patent US5334595A, “Pyrazoloquinolones as anticancer agents” (priority 1992, dated 1994).

Parameters in all cases: species or system mice
For series [1], the system named is adriamycin-resistant subline Mam16C/ADR. The series is described as follows: In vivo antitumor assay, Mam16C/ADR. As to conditions: drug iv, qd 1,3,5, exp 1120A. The source says:
(§1) Mice: Inbred: C3H/He and NCR-nu; and Hybrids: B6D2F1 (C57BL/6 females×DBA/2 males, CD2F1 (Balb/c females×DBS/2 males) and B6C3fl (C57BL/6×C3H) were bred at Wayne State University from strains obtained from the Frederick Cancer Research Facility, Frederick, Maryland or purchased from commercial suppliers.
(§2) Tumors: Murine Tumor: P388 and an adriamycin-resistant (ADR) subline P388/ADR leukemia and the following transplantable solid tumors of mice were used for in vivo testing: B16 melanoma (B16), pancreatic ductal adenocarcinoma No. 03 (Pane 03), colon adenocarcinoma No. 38 (colo 38), lung carcinoma No. 12 (LC 12), mammary ductal adenocarcinoma No. 16/C (Mam16C) and an adriamycin-resistant subline Mam16C/ADR. Human tumor: A single human tumor, mammary carcinoma MX-1 was used for in vivo testing. All tumors are in the Developmental Therapeutics Program frozen tumor respository, maintained by the Biological Testing Branch, Frederick Maryland. Each has a detailed description, code identification number, and list of references at the National Tumor Repository. […]
(§3) Quantitative end points used to assess antitumor activity included % Increased Life Span (% ILS), Tumor Cell Kill (Log10 kill), and Tumor Growth Inhibition (T/C). […]
(§4) The log10 cell kill was calculated from the following formula: [formula] where T-C is the tumor difference in the median day of death between the treated (T) and the control (C) groups and Td is the tumor doubling time (in days), the latter estimated from the best fit straight line from a log-linear growth plot of the control-group tumors in exponential growth. […]
(§5) Tumors were measured with a caliper once or twice weekly (as needed) until either tumors exceeded 1600 mg or cure was assured. […] When the control group tumors reached approximately 750-1500 mg in size (median of group), the median tumor weight of each group was determined (including zeros). […] The % T/C was calculated from the following formula for solid murine tumor models: [formula] where T and C are median tumor weights of the treatment and control groups, respectively. […]

Series [2] can be described thus: In vivo antitumor assay, Mam16C/ADR. As to conditions: mouse, in vivo, drug iv, qd 1,3,5, exp 1120A, footnote 2: 2 lower doses equally active to modestly more active.
Source text: as §1, §2, §3, §4, §5

The subject of series [3] is lung carcinoma No. 12 (LC 12). Briefly: In vivo antitumor assay, LC12(sc). As to conditions: drug iv, qd 3,5, exp 1161.
Source text: as §1
as §2, with “Repository. Murine tumors were maintained in the mouse strain of origin and were transplanted in the appropriate F1 hydrid (or the strain of origin) for therapy trials.” for “Repository.”
as §3
(§6) Tumors were measured with a caliper once or twice weekly (as needed) until either tumors exceeded 1600 mg or cure was assured. […] When the control group tumors reached approximately 750-1500 mg in size (median of group), the median tumor weight of each group was determined (including zeros). […] The % T/C was calculated from the following formula for solid murine tumor models: [formula] where T and C are median tumor weights of the treatment and control groups, respectively. […] By convention the T/C value for the mammary carcinoma MX-1 models is calculated by the parameter of change in tumor weight .

Series [4] in a line: In vivo antitumor assay, LC12(sc). As to conditions: mouse, in vivo, drug iv, qd 3,5, exp 1161, MTD not achieved, maximum dose tested.
Source text: as §1
as §2, with “Repository. Murine tumors were maintained in the mouse strain of origin and were transplanted in the appropriate F1 hydrid (or the strain of origin) for therapy trials.” for “Repository.”
as §3, §6

Series [5] in a line: In vivo antitumor assay, P388(iv). As to conditions: mouse, in vivo, drug iv, qd 1-3, exp 1155A.
Source text: as §1
as §2, with “Repository. Murine tumors were maintained in the mouse strain of origin and were transplanted in the appropriate F1 hydrid (or the strain of origin) for therapy trials.” for “Repository.”
as §3
(§7) Endpoints were calculated as follows: [formula] where Dt is the median day of death for treated and Dc is the median day of death for control groups. […] Minimum quantitative activity limits for additional P388 models (e.g. P388/ADR and P388, IV) have not been defined. […]
as §4

For the next series, the system named is P388 leukemia. The series is described as follows: In vivo antitumor assay, P388(iv). As to conditions: drug iv, qd 1-3, exp 1155A.
Source text: as §1
as §2, with “Repository. Murine tumors were maintained in the mouse strain of origin and were transplanted in the appropriate F1 hydrid (or the strain of origin) for therapy trials.” for “Repository.”
as §3, §7, §4

In the case of `Cc1cc(-c2c(F)cc3c4nn(CCN(C)C)c(=O)c-4cn(C4CC4)c3c2F)cc(C)n1.O=C(O)/C=C/C(=O)O` [Example 1, 5-Cyclopropyl-6,8-difluoro-2,5-dihydro-2-[2-(dimethylamino)-ethyl]-7-(2,6-dimethyl-4-pyridinyl)-3H-pyrazolo[4,3-c]quinolin-3-one (E)-2-butendioate (1:1)], the “Log Kill” value in series [1] is listed as 0.50; in series [3], 0.76; in the series on P388 leukemia it was 5.4. Further, the T/C % in series [1] is 26%; in series [3] it was 25%. Moreover, the MTD in series [2] was 58 mg/kg; in series [4] it was more than 35 mg/kg; in series [5], 37 mg/kg. Besides, the ILS % with P388 leukemia was determined as 82%.
